The results in this text go back to PMC4457528, “Identification of Novel Small Molecule Inhibitors of Oncogenic RET Kinase” (PLoS ONE, 2015).

Read-outs that look alike come from different tables or passages of the source.

Common to all, as to assay: KinomeScan kinase panel, single concentration 10 µM
Format in all cases: binding

Assay [1] concerns the target T1, KinomeScan kinase panel (Homo sapiens, UniProt Q96PY6).
T1 construct: purchased DiscoveRx (KinomeScan)
T1 sequence (Q96PY6 1-1258): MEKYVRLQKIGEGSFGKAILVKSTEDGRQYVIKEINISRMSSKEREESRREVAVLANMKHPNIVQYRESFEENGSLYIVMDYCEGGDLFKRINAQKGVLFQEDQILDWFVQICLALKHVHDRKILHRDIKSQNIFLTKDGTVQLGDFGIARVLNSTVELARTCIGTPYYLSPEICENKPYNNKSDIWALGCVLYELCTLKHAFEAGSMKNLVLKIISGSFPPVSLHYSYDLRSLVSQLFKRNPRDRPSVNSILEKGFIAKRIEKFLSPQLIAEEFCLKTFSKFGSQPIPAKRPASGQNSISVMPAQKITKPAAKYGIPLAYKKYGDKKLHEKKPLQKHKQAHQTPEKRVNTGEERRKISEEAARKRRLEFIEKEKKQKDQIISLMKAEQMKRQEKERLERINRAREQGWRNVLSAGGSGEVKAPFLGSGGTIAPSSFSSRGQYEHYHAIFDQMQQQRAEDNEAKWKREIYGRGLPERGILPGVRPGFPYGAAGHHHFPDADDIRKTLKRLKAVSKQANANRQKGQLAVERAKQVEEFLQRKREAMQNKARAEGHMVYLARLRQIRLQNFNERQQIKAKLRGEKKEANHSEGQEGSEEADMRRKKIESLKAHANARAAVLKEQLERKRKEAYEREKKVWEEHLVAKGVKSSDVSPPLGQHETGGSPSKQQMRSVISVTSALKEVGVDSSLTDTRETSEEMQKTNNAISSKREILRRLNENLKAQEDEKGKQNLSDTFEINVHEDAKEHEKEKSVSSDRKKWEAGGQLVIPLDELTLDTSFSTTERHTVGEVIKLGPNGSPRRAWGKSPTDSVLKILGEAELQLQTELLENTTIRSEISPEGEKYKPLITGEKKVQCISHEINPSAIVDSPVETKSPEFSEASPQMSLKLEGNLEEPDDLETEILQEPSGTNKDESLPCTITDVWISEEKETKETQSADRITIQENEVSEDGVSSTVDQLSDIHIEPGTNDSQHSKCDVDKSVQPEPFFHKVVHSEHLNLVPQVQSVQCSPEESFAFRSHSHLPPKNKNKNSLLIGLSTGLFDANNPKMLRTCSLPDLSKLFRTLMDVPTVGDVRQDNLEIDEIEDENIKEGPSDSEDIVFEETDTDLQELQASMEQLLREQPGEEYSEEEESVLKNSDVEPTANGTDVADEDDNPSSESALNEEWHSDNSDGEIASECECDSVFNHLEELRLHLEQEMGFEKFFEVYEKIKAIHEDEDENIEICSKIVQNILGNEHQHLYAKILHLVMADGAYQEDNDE
Conditions: NEK1, 10 µM; read-out: score (%).

Assay [2] deals with T2, KinomeScan kinase panel (Homo sapiens, UniProt Q16832).
T2 construct: purchased DiscoveRx (KinomeScan)
T2 sequence (Q16832 22-855): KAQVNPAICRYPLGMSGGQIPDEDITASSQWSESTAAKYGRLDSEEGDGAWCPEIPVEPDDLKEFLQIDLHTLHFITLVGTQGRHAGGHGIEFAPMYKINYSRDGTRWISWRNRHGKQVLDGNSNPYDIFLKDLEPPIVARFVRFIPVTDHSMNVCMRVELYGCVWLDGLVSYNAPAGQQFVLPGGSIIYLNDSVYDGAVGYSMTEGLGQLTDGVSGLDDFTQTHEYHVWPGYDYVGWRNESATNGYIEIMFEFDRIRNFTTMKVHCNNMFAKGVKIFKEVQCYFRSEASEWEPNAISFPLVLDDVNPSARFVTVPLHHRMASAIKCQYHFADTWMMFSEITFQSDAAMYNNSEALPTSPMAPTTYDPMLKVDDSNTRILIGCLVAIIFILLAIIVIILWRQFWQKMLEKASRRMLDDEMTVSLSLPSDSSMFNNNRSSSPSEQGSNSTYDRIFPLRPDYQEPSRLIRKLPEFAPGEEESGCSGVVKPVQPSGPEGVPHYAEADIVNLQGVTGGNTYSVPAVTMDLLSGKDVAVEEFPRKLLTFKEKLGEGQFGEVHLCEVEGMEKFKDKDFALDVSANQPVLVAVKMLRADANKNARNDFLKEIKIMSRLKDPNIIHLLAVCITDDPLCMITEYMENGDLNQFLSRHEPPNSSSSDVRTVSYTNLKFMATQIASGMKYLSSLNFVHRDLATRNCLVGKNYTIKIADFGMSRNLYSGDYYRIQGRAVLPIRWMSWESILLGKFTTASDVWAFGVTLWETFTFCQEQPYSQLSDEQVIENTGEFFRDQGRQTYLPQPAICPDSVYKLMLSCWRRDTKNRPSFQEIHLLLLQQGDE
Conditions: DDR2, 10 µM; read-out: score (%).

Assay [3] has as its target T3, KinomeScan kinase panel (Homo sapiens, UniProt Q15569).
T3 construct: purchased DiscoveRx (KinomeScan)
The conditions noted are these: read-out: score (%).

In assay [4] the target is T4, KinomeScan kinase panel (Homo sapiens, UniProt Q15746).
T4 construct: purchased DiscoveRx (KinomeScan)
Conditions: MYLK, 10 µM; read-out: score (%).

For assay [5], the target named is T5, KinomeScan kinase panel (Homo sapiens, UniProt O14757).
T5 construct: purchased DiscoveRx (KinomeScan)
T5 sequence (O14757 1-476): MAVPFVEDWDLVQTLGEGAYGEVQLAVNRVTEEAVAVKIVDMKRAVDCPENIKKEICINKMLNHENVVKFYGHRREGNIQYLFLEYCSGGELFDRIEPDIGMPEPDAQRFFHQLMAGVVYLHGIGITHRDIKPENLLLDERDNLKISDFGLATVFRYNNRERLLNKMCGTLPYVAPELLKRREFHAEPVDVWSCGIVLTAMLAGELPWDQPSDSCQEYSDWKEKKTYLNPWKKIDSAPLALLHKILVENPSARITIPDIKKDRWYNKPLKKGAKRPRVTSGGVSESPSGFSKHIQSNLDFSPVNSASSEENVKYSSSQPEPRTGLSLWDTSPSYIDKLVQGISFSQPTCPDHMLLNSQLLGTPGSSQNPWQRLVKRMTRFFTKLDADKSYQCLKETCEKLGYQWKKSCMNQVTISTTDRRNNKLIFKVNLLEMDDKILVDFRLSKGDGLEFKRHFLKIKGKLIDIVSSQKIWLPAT
Conditions: CHEK1, 10 µM.

The target in assay [6] is T6, KinomeScan kinase panel (Homo sapiens, UniProt Q2M2I8).
T6 construct: purchased DiscoveRx (KinomeScan)
Conditions: AAK1, 10 µM; read-out: score (%).

For assay [7], the target named is T7, KinomeScan kinase panel (Homo sapiens, UniProt Q00535).
T7 construct: purchased DiscoveRx (KinomeScan)
Conditions: CDK5, 10 µM; read-out: score (%).

Assay [8] concerns the target T8, KinomeScan kinase panel (Homo sapiens, UniProt Q9UIK4).
T8 construct: purchased DiscoveRx (KinomeScan)
The conditions noted are these: DAPK2, 10 µM; read-out: score (%).

T3 sequence (Q15569 whole entry): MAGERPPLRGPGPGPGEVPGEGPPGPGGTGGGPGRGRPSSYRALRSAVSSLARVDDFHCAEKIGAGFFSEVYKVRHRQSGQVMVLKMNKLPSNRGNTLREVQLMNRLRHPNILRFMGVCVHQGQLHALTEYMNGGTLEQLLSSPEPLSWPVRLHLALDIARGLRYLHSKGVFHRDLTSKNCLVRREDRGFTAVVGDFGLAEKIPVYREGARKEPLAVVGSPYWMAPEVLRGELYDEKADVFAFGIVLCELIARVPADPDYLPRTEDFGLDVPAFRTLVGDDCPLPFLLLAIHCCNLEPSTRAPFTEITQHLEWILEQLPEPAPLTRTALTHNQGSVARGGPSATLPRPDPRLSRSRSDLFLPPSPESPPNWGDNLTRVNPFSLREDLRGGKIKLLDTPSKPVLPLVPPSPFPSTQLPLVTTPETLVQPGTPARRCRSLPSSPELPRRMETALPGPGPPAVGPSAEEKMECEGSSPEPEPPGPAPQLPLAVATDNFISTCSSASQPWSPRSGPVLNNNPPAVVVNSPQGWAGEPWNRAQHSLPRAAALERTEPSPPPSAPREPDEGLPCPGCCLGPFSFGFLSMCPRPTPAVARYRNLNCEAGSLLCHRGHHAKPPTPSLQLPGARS
T7 sequence (Q00535 whole entry): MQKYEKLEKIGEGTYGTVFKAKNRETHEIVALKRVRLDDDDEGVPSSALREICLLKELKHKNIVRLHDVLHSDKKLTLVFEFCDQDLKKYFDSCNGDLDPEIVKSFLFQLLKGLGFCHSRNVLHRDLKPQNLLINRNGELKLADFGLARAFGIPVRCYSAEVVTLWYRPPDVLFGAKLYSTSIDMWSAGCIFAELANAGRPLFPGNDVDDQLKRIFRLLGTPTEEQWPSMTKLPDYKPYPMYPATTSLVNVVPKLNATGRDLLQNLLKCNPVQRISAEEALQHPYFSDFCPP
T8 sequence (Q9UIK4 whole entry): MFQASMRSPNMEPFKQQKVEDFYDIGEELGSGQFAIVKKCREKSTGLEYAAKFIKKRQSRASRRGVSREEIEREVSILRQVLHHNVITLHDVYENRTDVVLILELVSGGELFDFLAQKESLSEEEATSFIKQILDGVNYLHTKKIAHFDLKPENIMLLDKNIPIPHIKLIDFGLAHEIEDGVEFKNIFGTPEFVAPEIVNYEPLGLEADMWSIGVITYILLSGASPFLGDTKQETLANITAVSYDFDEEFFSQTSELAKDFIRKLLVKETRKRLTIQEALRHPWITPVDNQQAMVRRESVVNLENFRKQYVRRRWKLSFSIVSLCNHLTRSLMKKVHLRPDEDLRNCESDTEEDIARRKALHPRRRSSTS
T6 sequence (Q2M2I8 whole entry): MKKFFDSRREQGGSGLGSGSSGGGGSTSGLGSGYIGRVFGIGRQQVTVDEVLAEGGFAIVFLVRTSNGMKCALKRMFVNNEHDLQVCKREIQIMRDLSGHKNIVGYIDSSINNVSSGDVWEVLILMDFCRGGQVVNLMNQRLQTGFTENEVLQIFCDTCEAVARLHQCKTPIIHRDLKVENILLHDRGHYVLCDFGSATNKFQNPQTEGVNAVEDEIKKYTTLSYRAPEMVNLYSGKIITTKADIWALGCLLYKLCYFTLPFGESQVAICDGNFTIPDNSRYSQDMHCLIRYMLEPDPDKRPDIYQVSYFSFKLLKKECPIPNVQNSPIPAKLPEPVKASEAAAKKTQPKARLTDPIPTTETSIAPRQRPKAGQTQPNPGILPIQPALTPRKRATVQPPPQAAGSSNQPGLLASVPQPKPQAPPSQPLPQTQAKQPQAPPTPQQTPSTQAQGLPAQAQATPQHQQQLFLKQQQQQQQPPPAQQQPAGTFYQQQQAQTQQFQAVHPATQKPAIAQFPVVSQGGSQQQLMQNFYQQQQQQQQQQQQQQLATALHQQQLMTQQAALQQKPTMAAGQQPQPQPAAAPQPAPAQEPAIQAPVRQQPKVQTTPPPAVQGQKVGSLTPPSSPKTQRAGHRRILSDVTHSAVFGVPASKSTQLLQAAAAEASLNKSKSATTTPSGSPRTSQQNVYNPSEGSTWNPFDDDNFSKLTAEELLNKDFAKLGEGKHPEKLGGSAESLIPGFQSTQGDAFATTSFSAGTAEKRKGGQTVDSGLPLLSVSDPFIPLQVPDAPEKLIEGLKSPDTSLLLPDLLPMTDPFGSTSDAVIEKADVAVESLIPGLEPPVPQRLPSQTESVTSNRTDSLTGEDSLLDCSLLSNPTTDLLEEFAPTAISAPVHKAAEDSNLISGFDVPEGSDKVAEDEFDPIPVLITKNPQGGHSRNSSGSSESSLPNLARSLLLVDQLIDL
T4 sequence (Q15746 whole entry): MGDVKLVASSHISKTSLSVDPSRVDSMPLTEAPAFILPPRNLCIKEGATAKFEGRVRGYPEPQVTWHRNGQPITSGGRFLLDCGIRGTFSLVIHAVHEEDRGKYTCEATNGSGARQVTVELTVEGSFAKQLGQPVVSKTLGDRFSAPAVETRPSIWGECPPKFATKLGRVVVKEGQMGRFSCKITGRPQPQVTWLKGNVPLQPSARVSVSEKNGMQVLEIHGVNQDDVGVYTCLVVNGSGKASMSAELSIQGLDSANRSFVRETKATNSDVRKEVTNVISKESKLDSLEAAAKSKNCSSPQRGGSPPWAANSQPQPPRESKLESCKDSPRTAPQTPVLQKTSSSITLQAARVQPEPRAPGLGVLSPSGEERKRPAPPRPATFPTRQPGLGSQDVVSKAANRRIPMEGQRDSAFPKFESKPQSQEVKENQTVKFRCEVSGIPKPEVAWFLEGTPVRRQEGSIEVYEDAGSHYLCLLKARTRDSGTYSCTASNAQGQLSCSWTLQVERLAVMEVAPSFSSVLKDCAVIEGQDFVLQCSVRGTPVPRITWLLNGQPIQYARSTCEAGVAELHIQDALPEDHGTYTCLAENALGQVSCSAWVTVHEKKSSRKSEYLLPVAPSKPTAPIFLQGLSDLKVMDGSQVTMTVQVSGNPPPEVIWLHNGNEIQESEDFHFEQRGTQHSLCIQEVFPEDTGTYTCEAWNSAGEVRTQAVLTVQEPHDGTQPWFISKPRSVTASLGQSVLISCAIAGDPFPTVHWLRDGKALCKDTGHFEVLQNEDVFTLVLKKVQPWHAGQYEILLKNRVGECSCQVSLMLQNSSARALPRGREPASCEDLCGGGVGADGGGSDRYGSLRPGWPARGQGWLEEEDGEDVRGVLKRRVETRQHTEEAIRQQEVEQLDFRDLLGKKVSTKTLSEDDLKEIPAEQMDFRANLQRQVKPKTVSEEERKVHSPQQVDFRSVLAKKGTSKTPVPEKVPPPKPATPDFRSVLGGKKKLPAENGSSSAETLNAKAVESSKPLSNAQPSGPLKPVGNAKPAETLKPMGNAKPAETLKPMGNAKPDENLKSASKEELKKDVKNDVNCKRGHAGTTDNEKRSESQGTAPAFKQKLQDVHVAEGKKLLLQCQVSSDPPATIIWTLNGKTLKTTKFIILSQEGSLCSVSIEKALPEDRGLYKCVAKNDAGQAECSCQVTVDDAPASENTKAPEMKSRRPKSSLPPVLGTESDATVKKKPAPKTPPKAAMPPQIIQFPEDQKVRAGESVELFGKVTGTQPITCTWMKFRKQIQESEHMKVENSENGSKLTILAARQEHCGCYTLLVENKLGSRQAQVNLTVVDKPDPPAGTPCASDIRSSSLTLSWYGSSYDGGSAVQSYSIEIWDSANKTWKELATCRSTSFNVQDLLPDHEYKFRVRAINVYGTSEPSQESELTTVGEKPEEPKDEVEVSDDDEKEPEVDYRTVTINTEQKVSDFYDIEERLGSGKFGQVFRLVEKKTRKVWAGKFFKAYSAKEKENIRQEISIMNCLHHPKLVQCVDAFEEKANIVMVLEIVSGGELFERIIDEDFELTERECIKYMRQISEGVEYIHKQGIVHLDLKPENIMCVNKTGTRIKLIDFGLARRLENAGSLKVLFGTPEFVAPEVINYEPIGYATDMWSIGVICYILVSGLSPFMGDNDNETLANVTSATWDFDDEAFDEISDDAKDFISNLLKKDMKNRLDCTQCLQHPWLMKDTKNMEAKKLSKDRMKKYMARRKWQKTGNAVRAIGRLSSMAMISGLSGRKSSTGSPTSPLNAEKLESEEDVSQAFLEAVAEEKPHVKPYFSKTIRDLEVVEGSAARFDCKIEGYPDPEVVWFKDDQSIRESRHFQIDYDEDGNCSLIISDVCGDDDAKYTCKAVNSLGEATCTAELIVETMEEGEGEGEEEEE

As to `CCN1CCN(Cc2ccc(NC(=O)c3ccc(C)c(NC(=O)c4cncc(-c5cccs5)c4)c3)cc2C(F)(F)F)CC1` [ALW-II-41-27], the remaining binding at 10 µM on KinomeScan kinase panel [1] is above 30%; on KinomeScan kinase panel [2], 12%; at KinomeScan kinase panel [3] (kinase TESK1, 10 µM), above 30%; on KinomeScan kinase panel [4], above 30%; on KinomeScan kinase panel [6] it was above 30%; on KinomeScan kinase panel [7], above 30%. Further, the remaining binding at 10 µM on KinomeScan kinase panel [8] was above 30%. For the same compound, the “score (%)” value at KinomeScan kinase panel [5] is recorded as “nb (Hits values higher than 30% were considered negative (no binding: nb))”.
`CCN1CCN(Cc2ccc(NC(=O)c3ccc(C)c(/C=C/c4cnc5[nH]ccc5c4Cl)c3)cc2C(F)(F)F)CC1` [HG-6-63-01, (E)-3-(2-(4-chloro-1H-pyrrolo[2,3-b]pyridin-5-yl)vinyl)-N-(4-((4-ethylpiperazin-1-yl)methyl)-3-(trifluoromethyl)phenyl)-4-methylbenzamide]: the remaining binding at 10 µM at KinomeScan kinase panel [1] is above 30%; at KinomeScan kinase panel [2], 0.8%; at KinomeScan kinase panel [3] (TESK1, 10 µM), 4.2%; on KinomeScan kinase panel [4] it was above 30%; on KinomeScan kinase panel [6], 27%; on KinomeScan kinase panel [7], above 30%. For the same compound, the remaining binding at 10 µM at KinomeScan kinase panel [8] is above 30%. The “score (%)” value at KinomeScan kinase panel [5] is given as 25%.
Regarding `CCN1CCN(Cc2ccc(NC(=O)c3ccc(C)c(C#Cc4cccnc4)c3)cc2C(F)(F)F)CC1` [XMD15-44], the remaining binding at 10 µM at KinomeScan kinase panel [1] is above 30%; on KinomeScan kinase panel [2], 1%; on KinomeScan kinase panel [3] (kinase TESK1, 10 µM), 60%; at KinomeScan kinase panel [4] it was above 30%; on KinomeScan kinase panel [6], above 30%; on KinomeScan kinase panel [7], 10%. For the same compound, the remaining binding at 10 µM on KinomeScan kinase panel [8] is above 30%. Moreover, the “score (%)” value on KinomeScan kinase panel [5] is recorded as “nb (Hits values higher than 30% were considered negative (no binding: nb))”.
